Measurements from ChEMBL document CHEMBL6087476, “Positive Charge-Concentrated Dimeric Lipopeptides with Enhanced Protease Resistance: A Potential Solution for Systemic Bacterial Infections” (J Med Chem, 2025).
Values after ≈ are worked out from the molar mass of the structure shown. Active and inactive are the calls of the source. The rule behind the calls is not given here.

Key:
Escherichia coli [1] = test: Resistance fold, ratio of MIC for Escherichia coli ATCC 25922 measured after 7 day passage period to MIC for Escherichia coli ATCC 25922; format: functional
Escherichia coli [2] = test: Antimicrobial activity against Escherichia coli ATCC 25922 assessed as increase in absorbance incubated for 20 to 22 hrs; format: functional; conditions: time 20-22 hrs
Escherichia coli [3] = test: Antimicrobial activity against Escherichia coli K88 assessed as increase in absorbance incubated for 20 to 22 hrs; format: functional; conditions: time 20-22 hrs
Escherichia coli [4] = test: Antimicrobial activity against Escherichia coli K99 assessed as increase in absorbance incubated for 20 to 22 hrs; format: functional; conditions: time 20-22 hrs
Salmonella typhimurium [5] = test: Antimicrobial activity against Salmonella typhimurium 7731 assessed as increase in absorbance incubated for 20 to 22 hrs; format: functional, Salmonella enterica subsp. enterica serovar Typhimurium; conditions: Salmonella enterica, time 20-22 hrs
Salmonella typhimurium [6] = test: Antimicrobial activity against Salmonella typhimurium 14028 assessed as increase in absorbance incubated for 20 to 22 hrs; format: functional, Salmonella enterica subsp. enterica serovar Typhimurium; conditions: Salmonella enterica, time 20-22 hrs
Pseudomonas aeruginosa [7] = test: Antimicrobial activity against Pseudomonas aeruginosa 27853 assessed as increase in absorbance incubated for 20 to 22 hrs; format: functional; conditions: time 20-22 hrs
Staphylococcus aureus [8] = test: Antimicrobial activity against Staphylococcus aureus 29213 assessed as increase in absorbance incubated for 20 to 22 hrs; format: functional; conditions: time 20-22 hrs
Enterococcus faecalis = test: Antimicrobial activity against Enterococcus faecalis 29212 assessed as increase in absorbance incubated for 20 to 22 hrs; format: functional; conditions: time 20-22 hrs
Staphylococcus aureus [9] = test: Antimicrobial activity against Staphylococcus aureus 25923 assessed as increase in absorbance incubated for 20 to 22 hrs; format: functional; conditions: time 20-22 hrs
Staphylococcus aureus [10] = test: Antimicrobial activity against methicillin-resistant Staphylococcus aureus 43300 assessed as increase in absorbance incubated for 20 to 22 hrs; format: functional; conditions: time 20-22 hrs
[11] = system: Staphylococcus epidermidis; test: Antimicrobial activity against Staphylococcus epidermidis 12228 assessed as increase in absorbance incubated for 20 to 22 hrs; format: functional; conditions: time 20-22 hrs
[12] = Hemolytic activity in healthy human RBC assessed as hemolysis incubated for 1 hr by microplate reader; format: toxicity, cell-based; conditions: erythrocyte
[13] = Cytotoxicity against porcine IPEC-J2 cells assessed as cell death measured after 18 to 24 hrs by MTT assay; format: functional; conditions: Sus scrofa, time 18-24 hrs
RAW264.7 = test: Cytotoxicity against mouse RAW264.7 cells assessed as cell death measured after 18 to 24 hrs by MTT assay; format: functional; conditions: time 18-24 hrs
HEK-293T = test: Cytotoxicity against human HEK293T cells assessed as cell death measured after 18 to 24 hrs by MTT assay; format: functional; conditions: time 18-24 hrs
Acinetobacter baumannii [14] = test: Antimicrobial activity against Acinetobacter baumannii AB1901 assessed as increase in absorbance incubated for 20 to 22 hrs; format: functional; conditions: time 20-22 hrs
Acinetobacter baumannii [15] = test: Antimicrobial activity against Acinetobacter baumannii AB1902 assessed as increase in absorbance incubated for 20 to 22 hrs; format: functional; conditions: time 20-22 hrs
Pseudomonas aeruginosa [16] = test: Antimicrobial activity against Pseudomonas aeruginosa 25349 assessed as increase in absorbance incubated for 20 to 22 hrs; format: functional; conditions: time 20-22 hrs
Staphylococcus aureus [17] = test: Antimicrobial activity against Staphylococcus aureus 11011 assessed as increase in absorbance incubated for 20 to 22 hrs; format: functional; conditions: time 20-22 hrs
Escherichia coli [18] = test: Antimicrobial activity against Escherichia coli ATCC 25922 assessed as increase in absorbance incubated for 20 to 22 hrs in presence of Fe3+ physiological salt; format: functional, organism-based; conditions: time 20-22 hrs
Escherichia coli [19] = test: Antimicrobial activity against Escherichia coli ATCC 25922 assessed as increase in absorbance incubated for 20 to 22 hrs in presence of Mg2+ physiological salt; format: functional, organism-based; conditions: time 20-22 hrs
Escherichia coli [20] = test: Antimicrobial activity against Escherichia coli ATCC 25922 assessed as increase in absorbance incubated for 20 to 22 hrs in presence of […] physiological salt; format: functional, organism-based; conditions: time 20-22 hrs
Escherichia coli [21] = test: Antimicrobial activity against Escherichia coli ATCC 25922 assessed as increase in absorbance incubated for 20 to 22 hrs in presence of NH4+ physiological salt; format: functional, organism-based; conditions: time 20-22 hrs
Escherichia coli [22] = test: Antimicrobial activity against Escherichia coli ATCC 25922 assessed as increase in absorbance incubated for 20 to 22 hrs in presence of K+ physiological salt; format: functional, organism-based; conditions: time 20-22 hrs
Escherichia coli [23] = test: Antimicrobial activity against Escherichia coli ATCC 25922 assessed as increase in absorbance incubated for 4 hrs in presence of 12.5% serum; format: functional, organism-based
Escherichia coli [24] = test: Antimicrobial activity against Escherichia coli ATCC 25922 assessed as increase in absorbance incubated for 4 hrs in presence of 25% serum; format: functional, organism-based
Escherichia coli [25] = test: Antimicrobial activity against Escherichia coli ATCC 25922 assessed as increase in absorbance incubated for 4 hrs in presence of 50% serum; format: functional, organism-based
Escherichia coli [26] = test: Antimicrobial activity against Escherichia coli ATCC 25922 assessed as increase in absorbance at 8 mg/ml incubated for 8 hrs in presence of trypsin; format: functional, organism-based
Escherichia coli [27] = test: Antimicrobial activity against Escherichia coli ATCC 25922 assessed as increase in absorbance at 8 mg/ml incubated for 8 hrs in presence of chymotrypsin; format: functional, organism-based
Escherichia coli [28] = test: Antimicrobial activity against Escherichia coli ATCC 25922 assessed as increase in absorbance at 8 mg/ml incubated for 8 hrs in presence of pepsin; format: functional, organism-based
Escherichia coli [29] = test: Antibiofilm activity against Escherichia coli ATCC 25922 biofilm assessed as inhibition of biofilm formation at 2 uM; format: functional, organism-based
Escherichia coli [30] = test: Antibiofilm activity against Escherichia coli ATCC 25922 biofilm assessed as removal of matured biofilm at 16 uM; format: functional, organism-based
Lipopolysaccharide (LPS) = test: Binding affinity to Escherichia coli O111:B4 Lipopolysaccharide by fluorescent probe BODIPYTR-cadaverine (BC) assay; conditions: dose 1-16 µM
Escherichia coli [31] = test: Antimicrobial activity against Escherichia coli ATCC 25922 assessed as increase in absorbance at MIC concentration in presence of < 8 ug/ml Lipopolysaccharide incubated for 8 hrs; format: functional, organism-based; conditions: dose < 8.0 µg/ml
Escherichia coli [32] = test: Antimicrobial activity against Escherichia coli ATCC 25922 assessed as increase in absorbance at MIC concentration in presence of […] ug/ml Lipopolysaccharide incubated for 8 hrs; format: functional, organism-based; conditions: dose 64.0 µg/ml
Cell membrane [33] = test: Induction of Outer membrane permeability in Escherichia coli ATCC 25922 incubated for 30 mins by N-phenyl-1-naphthylamine (NPN) uptake assay; format: subcellular; conditions: dose 1-16 µM
Cell membrane [34] = test: Induction of depolarization of cytoplasmic membrane (CM) in Escherichia coli ATCC 25922 assessed as fluorescence changes at 1/2 to 3 times of MIC by fluorescent probe DiSC3-5 assay; format: subcellular; conditions: time 1000-3000 sec
Cell membrane [35] = test: Induction of depolarization of cytoplasmic membrane (CM) in Escherichia coli ATCC 25922 assessed as fluorescence changes at 1/2 to 3 times of MIC measured after 1000 to 3000 seconds by fluorescent probe DiSC3-5 assay; format: subcellular; conditions: time 1000-3000 sec
Cell membrane [36] = test: Induction of cytoplasmic membrane (CM) permeabilization in Escherichia coli ATCC 25922 assessed as utilization of ONPG at 1/2 MIC; format: subcellular
Escherichia coli [37] = test: Induction of ROS accumulation in Escherichia coli ATCC 25922 at 4 uM incubated for 30 mins by DCFH-DA assay; format: functional, organism-based
Escherichia coli [38] = test: Inhibition of respiratory chain dehydrogenase (RCD) activity in Escherichia coli ATCC 25922 at 4 uM incubated for 90 mins by TTC assay
Escherichia coli [39] = test: Reduction in intracellular ATP level in Escherichia coli ATCC 25922 at 2 uM measured after 1 hr incubation by Enhanced ATP assay kit; format: functional; design: scale not given: the % may be the effect or the level left
Escherichia coli [40] = test: Induction of membrane damage in Escherichia coli ATCC 25922 assessed as damaged membrane surface (irregular vesicles protrusions) at 8 uM measured after 1 hr incubation by SEM analysis; format: functional, organism-based
Escherichia coli [41] = test: Induction of membrane damage in Escherichia coli ATCC 25922 assessed as damaged membrane surface by analysing leakage (hollow interiors) at 8 uM measured after 1 hr incubation by TEM analysis; format: functional, organism-based
Escherichia coli [42] = test: Induction of membrane damage in Escherichia coli ATCC 25922 assessed as ruptured membrane by analysing red fluorescence at 8 uM measured after 1 hr incubation by PI - live and dead staining based fluorescence microscopy; format: functional, organism-based
Escherichia coli [43] = test: Induction of membrane damage in Escherichia coli ATCC 25922 assessed as ruptured membrane by analysing green fluorescence at 8 uM measured after 1 hr incubation by SYTO - live and dead staining based fluorescence microscopy; format: functional, organism-based
Escherichia coli [44] = test: Resistance fold, ratio of MIC for Escherichia coli ATCC 25922 measured after 30 day passage period to MIC for Escherichia coli ATCC 25922; format: functional
Mus musculus [45] = test: Anti-inflammatory activity against Escherichia coli ATCC 25922-induced peritonitis ICR mouse model assessed as decrease in IL-1 beta level in serum spleen at 5 mg/kg, ip measured after 12 hrs; format: functional, organism-based
Mus musculus [46] = test: Anti-inflammatory activity against Escherichia coli ATCC 25922-induced peritonitis ICR mouse model assessed as decrease in IL-6 level in serum spleen at 5 mg/kg, ip measured after 12 hrs; format: functional, organism-based
Mus musculus [47] = test: Anti-inflammatory activity against Escherichia coli ATCC 25922-induced peritonitis ICR mouse model assessed as decrease in TNF-alpha level in serum spleen at 5 mg/kg, ip measured after 12 hrs; format: functional, organism-based

## CN(C)[C@@H]1C(O)=C(C(N)=O)C(=O)[C@@]2(O)C(O)=C3C(=O)c4c(O)cccc4[C@@](C)(O)[C@H]3C[C@@H]12 [TETRACYCLINE]
Escherichia coli [1]
  fold change (FC): 8

## CCCCCCCCCC(=O)NCCCC[C@H](NC(=O)[C@@H](N)CSSC[C@H](N)C(=O)N[C@@H](CCCCNC(=O)CCCCCCCCC)C(=O)NCC(=O)NCC(=O)NCC(=O)N[C@H](CCCNC(=N)N)C(=O)N[C@@H](CCCNC(=N)N)C(=O)N[C@@H](CCCNC(=N)N)C(=O)N1CCC[C@H]1C(=O)O)C(=O)NCC(=O)NCC(=O)NCC(=O)N[C@H](CCCNC(=N)N)C(=O)N[C@@H](CCCNC(=N)N)C(=O)N[C@@H](CCCNC(=N)N)C(=O)N1CCC[C@H]1C(=O)O
Escherichia coli [2]
  MIC: 4 µM (≈ 9.12 µg/mL)
Escherichia coli [3]
  MIC: 4 µM (≈ 9.12 µg/mL)
Escherichia coli [4]
  MIC: 8 µM (≈ 18.2 µg/mL)
Salmonella typhimurium [5]
  MIC: 8 µM (≈ 18.2 µg/mL)
Salmonella typhimurium [6]
  MIC: 4 µM (≈ 9.12 µg/mL)
Pseudomonas aeruginosa [7]
  MIC: 8 µM (≈ 18.2 µg/mL)
Staphylococcus aureus [8]
  MIC: 8 µM (≈ 18.2 µg/mL)
Enterococcus faecalis
  MIC: 8 µM (≈ 18.2 µg/mL)
Staphylococcus aureus [9]
  MIC: 8 µM (≈ 18.2 µg/mL)
Staphylococcus aureus [10]
  MIC: 8 µM (≈ 18.2 µg/mL)
[11]
  MIC: 8 µM (≈ 18.2 µg/mL)
[12]
  HC10: 256 µM
[13]
  IC10: 256 µM
RAW264.7
  IC10: 256 µM
HEK-293T
  IC10: 256 µM
Acinetobacter baumannii [14]
  MIC: 4 µM (≈ 9.12 µg/mL)
Acinetobacter baumannii [15]
  MIC: 16 µM (≈ 36.5 µg/mL)
Pseudomonas aeruginosa [16]
  MIC: 4 µM (≈ 9.12 µg/mL)
Staphylococcus aureus [17]
  MIC: 8 µM (≈ 18.2 µg/mL)
Escherichia coli [18]
  Activity: Active
Escherichia coli [19]
  Activity: Active
Escherichia coli [20]
  Activity: Active
Escherichia coli [21]
  Activity: Active
Escherichia coli [22]
  Activity: Active
Escherichia coli [23]
  Activity: Active
Escherichia coli [24]
  Activity: Active
Escherichia coli [25]
  Activity: Active
Escherichia coli [26]
  Activity: Active; Negligible Alteration In Mic Values Found
Escherichia coli [27]
  Activity: Active; Negligible Alteration In Mic Values Found
Escherichia coli [28]
  Activity: Active; Negligible Alteration In Mic Values Found
Escherichia coli [29]
  Activity: Active
Escherichia coli [30]
  Activity: Active
Lipopolysaccharide (LPS)
  Activity: Dose-dependent-effect
Escherichia coli [31]
  Activity: Active
Escherichia coli [32]
  Activity: inactive
Cell membrane [33]
  Activity: Dose-dependent-effect
Cell membrane [34]
  Activity: Time-dependent-effect
Cell membrane [35]
  Activity: Dose-dependent-effect
Cell membrane [36]
  Activity: Active
Escherichia coli [37]
  Activity: Active
Escherichia coli [38]
  inhibition: Active
Escherichia coli [39]
  Activity: ~40%
Escherichia coli [40]
  Activity: Active
Escherichia coli [41]
  Activity: Active
Escherichia coli [42]
  Activity: Active
Escherichia coli [43]
  Activity: Active
Escherichia coli [44]
  fold change (FC): <=2

## CNC(C)[C@@H]1CC[C@@H](N)[C@@H](O[C@H]2[C@H](O)[C@@H](O[C@H]3OC[C@](C)(O)[C@H](NC)[C@H]3O)[C@H](N)C[C@@H]2N)O1.CN[C@@H]1[C@@H](O)[C@@H](O[C@@H]2[C@@H](O)[C@H](O[C@H]3O[C@H](C(C)N)CC[C@H]3N)[C@@H](N)C[C@H]2N)OC[C@]1(C)O.CN[C@@H]1[C@@H](O)[C@@H](O[C@@H]2[C@@H](O)[C@H](O[C@H]3O[C@H](CN)CC[C@H]3N)[C@@H](N)C[C@H]2N)OC[C@]1(C)O (stereo not given in full)
Acinetobacter baumannii [14]
  MIC: 0.25 µM
Acinetobacter baumannii [15]
  MIC: > 64 µM
Pseudomonas aeruginosa [16]
  MIC: 0.25 µM
Staphylococcus aureus [17]
  MIC: > 64 µM
Mus musculus [45]
  Activity: Active
Mus musculus [46]
  Activity: Active
Mus musculus [47]
  Activity: Active
